Where a name gives a salt, the structure may show the parent alone.

The first experiment relates to MLKL phosphorylation in HT29-L23 human colorectal adenocarcinoma cells. In words: MLKL Phosphorylation High-Content Assay. Type of experiment: cell-based. The note with it: Homo sapiens, 6 h, necroptosis induced with TNFα, SMAC mimetic and Z-VAD, read-out: pMLKL (IC50). As to the method: MLKL Phosphorylation High-Content Assay
HT29-L23 human colorectal adenocarcinoma cells were maintained in RPMI 1640 medium containing 10% heat-inactivated FBS, 1% Pennicilin-Streptomycin and 10 mM HEPES. Cells were seeded at 2,000 cells/well in 384 w tissue culture-treated microplates (Greiner #781090-3B) and incubated at 37° C. (5% CO2/95% O2) for two days. On the day of assay, the cells were treated with test compounds at final concentrations of 6.25 to 0.106 μM for 30 min at 37° C. (5% CO2/95% O2). Necroptopsis was induced using a mixture of human TNFα (35 ng/mL) (Peprotech #300-01A), SMAC mimetic (from US 2015/0322111 A1) (700 nM) and Z-VAD (140 nM) (BD pharmingen #51-6936). Following six hours incubation at 37° C. (5% CO2/95% O2), the cells were fixed with 4% formaldedye (ACROS 11969-0010) for 15 min at room temperature and then permeabilized with phoshpate buffered saline (PBS) containing 0.2% Triton-X-100 for 10 min. MLKL phosporylation was detected using anti-MLKL (phospho S358) antibody (Abcam # ab187091) (1:1000 dilution in Blocking Buffer [PBS supplemented with 0.1% BSA]) with overnight incubation at 4° C. After washing three times in PBS, goat anti-rabbit Alexa-488 (1:1000 dilution) (Life Technologies, A11008) and Hoechst 33342 (Life Technologies, H3570) (1:2000 dilution) in Blocking Buffer were added for 1 h at room temperature. Following another three cycles of washes in PBS, the microplates were sealed, and cellular images were acquired in the Cellomics ArrayScan VTI high-content imager equipped with an X1 camera. Fluorescent images were taken using a 10× objective and the 386-23 BGRFRN_BGRFRN and 485-20 BGRFRN_BGRFRN filter sets, for nuclei and MLKL phosphorylation, respectively. The image sets were analyzed using the Compartmental Analysis Bioapplication software (Cellomics). The level of MLKL phosphorylation was quantified as MEAN_CircRingAvgIntenRatio. […] The IC50 value was defined as the concentration of compound that produces 50% of the maximal inhibition. The data were fitted using the 4-parameter logistic equation to calculate the IC50 and Ymax values.
With `COc1ccc(-c2ccc3nc(NC(C)=O)cn3n2)c(F)c1C(=O)NCC[C@@H](O)c1ccc(Cl)cc1` [Example 374, N-[(3R)-3-(4-chlorophenyl)-3-hydroxypropyl]-3-{2-acetamidoimidazo [1,2-b]pyridazin-6-yl}-2-fluoro-6-methoxybenzamide], the IC50 (commonly the concentration that gives 50% inhibition) was determined as 0.019 µM.

`CC(=O)Nc1cn2nc(-c3cc(C(=O)NCC[C@@H](O)c4ccc(Cl)cc4)c(C)cc3F)ccc2n1` [Example 415, N-[(3R)-3-(4-chlorophenyl)-3-hydroxypropyl]-5-{2-acetamidoimidazo[1,2-b]pyridazin-6-yl}-4-fluoro-2-methylbenzamide]: the IC50 was 0.004 µM.

On to `COc1ncc(-c2ccc3nc(NC(C)=O)cn3n2)cc1C(=O)NCc1cc(F)ccc1C(=O)N1CCC(F)(F)C1` [Example 323, N-{[2-(3,3-difluoropyrrolidine-1-carbonyl)-5-fluorophenyl]methyl}-5-{2-acetamidoimidazo[1,2-b]pyridazin-6-yl}-2-methoxypyridine-3-carboxamide], for which the half-inhibitory concentration (IC50) came out at 0.009 µM.

As for `Cc1ncc(-c2ccc3nc(NC(=O)CN4CCOCC4)cn3n2)cc1C(=O)N[C@H](C)c1cc(OC(F)(F)F)ccc1F` [Example 337, N-[(1R)-1-[2-fluoro-5-(trifluoromethoxy)-phenyl]ethyl]-2-methyl-5-{2-[2-(morpholin-4-yl)acetamido]imidazo[1,2-b]pyridazin-6-yl}pyridine-3-carboxamide], the 50% inhibitory concentration (IC50) turned out to be 0.011 µM.

Take `Cc1ncc(-c2ccc3nc(NC(=O)CN4CCOCC4)cn3n2)cc1C(=O)NCC[C@@H](O)c1ccc(Cl)cc1` [Example 345, N-[(3R)-3-(4-chlorophenyl)-3-hydroxypropyl]-2-methyl-5-{2-[2-(morpholin-4-yl)acetamido]imidazo[1,2-b]pyridazin-6-yl}pyridine-3-carboxamide]: the IC50 is 0.044 µM.

On to `CC(=O)Nc1cn2nc(-c3c(F)c(F)cc(C(=O)NCc4cc(C(F)(F)F)ccc4F)c3F)ccc2n1` [Example 369, 3-{2-acetamidoimidazo [1,2-b]pyridazin-6-yl}-2,4,5-trifluoro-N-{[2-fluoro-5-(trifluoromethyl)phenyl]methyl} benzamide], for which the concentration for half-maximal inhibition (IC50) is 0.061 µM.

Consider `CC(=O)Nc1cn2nc(-c3cc(C(=O)NCc4cc(OC(F)(F)F)ccc4F)c(Cl)cc3C)ccc2n1` [Example 393, 2-chloro-5-{2-acetamidoimidazo [1,2-b]pyridazin-6-yl}-N-{[2-fluoro-5-(trifluoromethoxy)phenyl]methyl}-4-methylbenzamide], for which the half-maximal inhibitory concentration (IC50) is 0.008 µM.

Regarding `CC(=O)Nc1cn2nc(-c3cc(C(=O)NCc4cc(OC(F)(F)F)ccc4F)ccc3C)ccc2n1` [Example 433, 3-{2-acetamidoimidazo [1,2-b]pyridazin-6-yl}-N-{[2-fluoro-5-(trifluoromethoxy)phenyl]methyl}-4-methylbenzamide], the half-maximal inhibitory concentration (IC50) stood at 0.034 µM.

`CC(=O)Nc1cn2nc(-c3c(F)ccc(C(=O)N[C@H](C)c4cc(C(F)(F)F)ccc4F)c3F)ccc2n1` [Example 423, 3-{2-acetamidoimidazo [1,2-b]pyridazin-6-yl}-2,4-difluoro-N-[(1R)-1-[2-fluoro-5-(trifluoromethyl)phenyl]ethyl] benzamide]: the IC50 stood at 0.109 µM.

Staying with this experiment, now noted: necroptosis induced with TNFα, SMAC mimetic and Z-VAD, 6 h, read-out: pMLKL (IC50).
Regarding `CC(=O)Nc1cn2nc(-c3cc(C(=O)NCc4cccnc4OCC4CCC4)c(C)nc3C)ccc2n1` [Example 86, N-{[2-(cyclobutylmethoxy)pyridin-3-yl]methyl}-5-{2-acetamidoimidazo[1,2-b]pyridazin-6-yl}-2,6-dimethylpyridine-3-carboxamide], the IC50 amounted to 0.027 µM.

On to `COc1ncc(-c2ccc3nc(NC(C)=O)cn3n2)cc1C(=O)NCc1ncccc1OCC(F)(F)F` [Example 101, 5-{2-acetamidoimidazo[1,2-b]pyridazin-6-yl}-2-methoxy-N-{[3-(2,2,2-trifluoroethoxy)pyridin-2-yl]methyl}pyridine-3-carboxamide, 2 TFA], for which the half-maximal inhibitory concentration (IC50) stood at 0.248 µM.

The record behind these values is patent US11440913B2, “Aminoimidazopyridazines as kinase inhibitors” (BRISTOL-MYERS SQUIBB COMPANY, priority 2017, dated 2022).
